The subject of series [1] is Mus musculus. The experiment in a line: Anticonvulsant activity in ip dosed mouse model of seizure. Format: functional.
The test system of series [2] is Mus musculus. The series is described as follows: Anticonvulsant activity in PTZ induced mouse model of seizure assessed as protection against seizure at 1 mmol/Kg, ip relative to control. Format: functional.
Series [3] is described as follows: Therapeutic index, ratio of LD50 for toxicity in ip dosed mouse to ED50 for anticonvulsant activity in ip dosed mouse model of seizure. The series is classed as organism-based. The conditions noted are these: in vivo, read-out: TI.
Series [4] is described as follows: Toxicity in ip dosed mouse. Format: organism-based. The conditions noted are these: in vivo.
Series [5] can be described thus: Protective index, ratio of TD50 for toxicity in ip dosed mouse to ED50 for anticonvulsant activity in ip dosed mouse model of seizure. Format: organism-based. The conditions noted are these: in vivo, read-out: Ratio TD50/ED50.
Series [6] concerns Mus musculus. The series is described as follows: Anticonvulsant activity in MES induced mouse model of seizure assessed as protection against seizure at 1 mmol/Kg, ip relative to control. The series is classed as functional.

`CC(=O)c1nnn(-c2nc(Cl)nc(Cl)n2)c1NCc1cc(F)cc(F)c1` had an ED50 in series [1] of 0.46 mmol/kg. The values for the Activity in series [2] and in series [6] were 100% and 83%, respectively. In addition, the values for the selectivity ratio in series [3] and in series [5] were 2.21 and 2.1, respectively. The same molecule showed a TD50 in series [4] of 0.97 mmol/kg.

As to `CC(=O)c1nnn(-c2nc(Cl)nc(Cl)n2)c1NCc1ccc(Cl)cc1`, in series [1], the ED50 was 0.39 mmol/kg. For the same molecule, the Activity in series [2] and in series [6] was 100% throughout. Further, the selectivity ratio was 2.76 in series [3] and 2.38 in series [5]. The TD50 in series [4] was found to be 0.93 mmol/kg.

Turning to `COc1ccc(CNc2c(C(C)=O)nnn2-c2nc(Cl)nc(Cl)n2)cc1`, the Activity in series [2] stood at 25%; in series [6], 10%.

For `CC(=O)c1nnn(-c2nc(Cl)nc(Cl)n2)c1NCc1ccc(O)cc1`, the Activity in series [2] is 33%; in series [6] it was 18%.

As to `CC(=O)c1nnn(-c2nc(Cl)nc(Cl)n2)c1NCc1ccc(C)cc1`, the Activity came out at 39% in series [2] and 25% in series [6].

On to `CC(=O)c1nnn(-c2nc(Cl)nc(Cl)n2)c1NCc1ccc(F)cc1`, for which the ED50 in series [1] amounted to 0.34 mmol/kg. For the same molecule, the Activity in series [2] and in series [6] was 100% throughout. In addition, the selectivity ratio turned out to be 3.35 in series [3] and 2.61 in series [5]. The molecule further displayed a TD50 in series [4] of 0.89 mmol/kg.

The molecule `CC(=O)c1nnn(-c2nc(Cl)nc(Cl)n2)c1NCc1ccc([N+](=O)[O-])cc1` came in with an ED50 in series [1] of 0.27 mmol/kg. Also, the Activity in series [2] and in series [6] was 100% each time. The selectivity ratio in series [3] is 4.14; in series [5], 3.07. The molecule further gave a TD50 in series [4] of 0.83 mmol/kg.

Consider `CC(=O)c1nnn(-c2nc(Cl)nc(Cl)n2)c1NCc1ccccc1`, for which the results for the Activity in series [2] and in series [6] were 48% and 33%, respectively.

As for `Cc1ccccc1-n1c(C)nc2ccccc2c1=O` [METHAQUALONE], the ED50 in series [1] worked out at 1.46 mmol/kg. The Activity in series [2] and in series [6] was 100% in each case. Also, the selectivity ratio in series [3] was 1.4; in series [5] it was 1.12. For the same molecule, the TD50 in series [4] worked out at 1.64 mmol/kg.

Regarding `CC(=O)c1nnn(-c2nc(Cl)nc(Cl)n2)c1NCc1cc(F)c(F)c(F)c1`, the figures for the Activity in series [2] and in series [6] were 75% and 67%, respectively.

In series [1], `CC(=O)c1nnn(-c2nc(Cl)nc(Cl)n2)c1NCc1ccc(C(F)(F)F)cc1` yielded an ED50 of 0.21 mmol/kg. The Activity in series [2] and in series [6] was 100% throughout. Further, the selectivity ratio in series [3] amounted to 5.61; in series [5], 3.76. The molecule also returned a TD50 in series [4] of 0.79 mmol/kg.

Molecule `CCCC(CCC)C(=O)O` [VALPROIC ACID] yielded a median effective dose (ED50) in series [1] of 4.61 mmol/kg. Besides, the Activity in series [2] and in series [6] was 100% in each case. Also, the selectivity ratio turned out to be 2.59 in series [3] and 2.08 in series [5]. In series [4], this molecule displayed a TD50 of 9.63 mmol/kg.

The record behind these values is ChEMBL document CHEMBL5150034, “Design, synthesis, molecular docking and pharmacological evaluation of novel triazine-based triazole derivatives as potential anticonvulsant agents” (Bioorg Med Chem Lett, 2022).
